Here are results for six compounds from patent US8937068B2, “Pyridopyrazine derivatives and their use” (Zentaris GmbH, priority 2005, dated 2015).

The test system of one data set is Hct116. Kind of data set: XTT assay, anti-proliferative effect, Hct116. In kind it is cell-based. Conditions: 45 h incubation. As to the method:
(§1) The principle of this test is based on the intracellular reduction of the tetrazolium dye XTT (sodium 3′-[1-(phenylaminocarbonyl)-3,4-tetrazolium]-bis(4-methoxy-6-nitro)benzene sulfonic acid, Sigma) to a formazan dye by mitochondrial dehydrogenases. The dye is only formed by metabolically active cells and its photometrically measurable intensity is a quantitative indicator for the presence of living cells. The reduction of dye formation by incubation of the cells with substances serves as a parameter for the anti-proliferative effect.
(§2) The tumour cell lines (ATCC) were injected into 96-well microtitre plates in a defined cell number (5000 cells/well for BxPC3 and Hct116; 10000 cells/well for MDA MB468) and then incubated overnight in an incubator at 37° C., 5% CO2 and 95% air humidity. The test substances were prepared as stock solutions (10 mM) in DMSO. […] The cell plates were then incubated for 45 h in an incubator at 37° C., 5% CO2 and 95% air humidity.
(§3) For the detection reaction the substrate XTT was mixed with PMS (N-Methyl dibenzopyrazine methylsulfate, Sigma) and added to the cells so that a final concentration of 325 μg XTT/ml and 2.5 μg PMS/ml was obtained. It was then incubated for 3 h at 37° C., 95% air humidity. The formazan salt formed by the cellular dehydrogenases could then be quantified by adsorption at 490 nm.
(§4) The % inhibition value was evaluated by means of the following formula from the values for the optical densities measured in each case at 490 nm:
(§5) Eight determinations were made for each control and two for the substance samples. The 0% control contains no cells, the 100% control (proliferation control) contains no test substance. The EC50 values were determined using GraphPadPrism.
Background: Formazan colour is commonly taken as a measure of viable cells.

A further data set relates to MDA-MB468. Kind of data set: XTT assay, anti-proliferative effect, MDA-MB468. Type of data set: cell-based. Conditions: 45 h incubation. The method, then: as §1, §2, §3, §4, §5
The target of another data set is PI3Kalpha (Homo sapiens (Human), UniProt P42336). Kind of data set: Cell-free kinase assay (ALPHA technology), PI3Kalpha. Type of data set: biochemical. Particulars: 100 μM ATP. In a few lines:
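Recombinant human GST- or His-tagged kinases were assayed for 1 h with ALPHA bead detection read after overnight standing. For PI3Kalpha: 1 ng enzyme, 100 μM ATP, 20 μM PIP2 in Hepes pH 7.4, detected by GST:Grp1/biotin-PIP3 competition. The p38alpha and Jnk assays followed the MAPK format (10 μM ATP, biotin-MBP, anti-phospho-MBP); IC50 from %-inhibition.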

In the next data set the test system is BxPC3. Kind of data set: XTT assay, anti-proliferative effect, BxPC3. In kind it is cell-based. Conditions: Homo sapiens, BXPC-3; 45 h incubation. As to the method: as §1, §2, §3, §4, §5
Another data set addresses Erk2 (Homo sapiens, UniProt P28482). Kind of data set: Cell-free kinase assay (ALPHA technology), Erk2. Type of data set: biochemical. Particulars: 10 μM ATP. Put shortly: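 Recombinant tagged Erk2 kinase reactions were stopped with ALPHA bead mix […]. The signal was read after standing overnight. Controls were run in eight replicates and compounds in duplicate, and IC50 was fitted.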

Erk2, sequence (P28482 2-360 limits assumed): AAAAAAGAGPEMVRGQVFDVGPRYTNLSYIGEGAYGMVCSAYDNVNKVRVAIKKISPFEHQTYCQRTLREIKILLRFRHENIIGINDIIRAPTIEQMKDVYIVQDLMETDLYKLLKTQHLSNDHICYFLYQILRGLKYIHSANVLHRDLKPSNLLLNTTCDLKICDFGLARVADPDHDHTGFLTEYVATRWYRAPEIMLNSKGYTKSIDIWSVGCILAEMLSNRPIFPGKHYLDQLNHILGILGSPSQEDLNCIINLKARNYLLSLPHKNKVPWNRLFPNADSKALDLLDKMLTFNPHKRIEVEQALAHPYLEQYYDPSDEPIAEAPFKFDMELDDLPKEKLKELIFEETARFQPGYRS
PI3Kalpha, sequence (P42336 whole entry): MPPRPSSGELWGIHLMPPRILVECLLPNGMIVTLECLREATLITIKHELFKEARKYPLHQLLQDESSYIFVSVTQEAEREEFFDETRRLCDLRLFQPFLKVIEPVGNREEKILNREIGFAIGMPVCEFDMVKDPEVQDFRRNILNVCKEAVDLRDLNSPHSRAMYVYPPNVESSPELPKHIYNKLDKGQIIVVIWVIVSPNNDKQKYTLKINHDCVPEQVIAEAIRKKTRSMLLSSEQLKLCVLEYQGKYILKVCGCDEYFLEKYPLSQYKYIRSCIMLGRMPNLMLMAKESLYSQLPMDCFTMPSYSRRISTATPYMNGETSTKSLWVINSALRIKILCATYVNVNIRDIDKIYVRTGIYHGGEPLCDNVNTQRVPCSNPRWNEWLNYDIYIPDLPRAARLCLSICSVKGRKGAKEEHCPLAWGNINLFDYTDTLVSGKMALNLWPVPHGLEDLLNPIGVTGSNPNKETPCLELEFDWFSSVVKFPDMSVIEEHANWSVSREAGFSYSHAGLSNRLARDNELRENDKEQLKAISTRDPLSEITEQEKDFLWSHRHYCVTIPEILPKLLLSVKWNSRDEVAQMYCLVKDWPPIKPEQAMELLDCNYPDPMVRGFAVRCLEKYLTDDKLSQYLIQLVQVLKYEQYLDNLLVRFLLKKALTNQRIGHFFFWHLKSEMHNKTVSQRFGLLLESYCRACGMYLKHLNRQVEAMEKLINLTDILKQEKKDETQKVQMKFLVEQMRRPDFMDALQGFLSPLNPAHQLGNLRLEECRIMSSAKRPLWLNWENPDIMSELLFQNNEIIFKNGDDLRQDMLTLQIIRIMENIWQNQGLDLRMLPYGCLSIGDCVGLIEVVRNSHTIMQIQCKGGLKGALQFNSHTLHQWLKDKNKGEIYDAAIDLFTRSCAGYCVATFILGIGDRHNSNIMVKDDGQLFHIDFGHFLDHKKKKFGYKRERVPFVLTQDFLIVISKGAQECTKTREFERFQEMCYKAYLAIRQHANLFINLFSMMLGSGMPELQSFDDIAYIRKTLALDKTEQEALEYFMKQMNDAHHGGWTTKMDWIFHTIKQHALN
PI3Kalpha, sequence (P27986 whole entry partner): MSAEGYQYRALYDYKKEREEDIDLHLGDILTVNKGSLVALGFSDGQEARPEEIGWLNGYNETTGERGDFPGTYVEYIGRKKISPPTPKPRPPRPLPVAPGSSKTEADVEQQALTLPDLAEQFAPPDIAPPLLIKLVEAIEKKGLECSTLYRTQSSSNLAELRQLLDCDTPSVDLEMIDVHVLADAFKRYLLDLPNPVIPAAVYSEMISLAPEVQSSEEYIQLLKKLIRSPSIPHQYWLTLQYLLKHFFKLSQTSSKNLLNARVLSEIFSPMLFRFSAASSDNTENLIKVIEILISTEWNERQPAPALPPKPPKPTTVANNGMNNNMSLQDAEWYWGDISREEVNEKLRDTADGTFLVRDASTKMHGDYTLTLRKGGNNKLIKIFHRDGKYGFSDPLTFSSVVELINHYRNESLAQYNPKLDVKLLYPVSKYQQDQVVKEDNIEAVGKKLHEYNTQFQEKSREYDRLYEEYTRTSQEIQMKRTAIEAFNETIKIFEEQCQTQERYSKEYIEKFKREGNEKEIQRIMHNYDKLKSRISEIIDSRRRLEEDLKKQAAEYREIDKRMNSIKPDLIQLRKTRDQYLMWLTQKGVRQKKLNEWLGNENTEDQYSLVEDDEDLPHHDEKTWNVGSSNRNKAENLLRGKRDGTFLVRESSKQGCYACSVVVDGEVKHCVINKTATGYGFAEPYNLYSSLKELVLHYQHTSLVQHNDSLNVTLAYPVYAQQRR

As for `C=CCNC(=S)Nc1ccc2ncc(-c3ccc(O)cc3)nc2n1` [Compound 30, 1-allyl-3-[3-(4-hydroxy-phenyl)-pyrido[2,3-b]pyrazin-6-yl]-thiourea], the melting point (as a rule, the temperature of the solid-liquid transition) is 230 °C (dec.). The midpoint of the response with Hct116 (Homo sapiens, HCT-116), the EC50, lay at 6000 nM. A half-maximal response in the data set on MDA-MB468 (Homo sapiens, MDA-MB-468) (EC50) required 4000 nM. Besides, the IC50 – broadly, the concentration needed to halve the response being measured – against PI3Kalpha came out at 370 nM. In addition, the EC50 – broadly, the concentration at which the effect is half-maximal – with BxPC3 stood at 12000 nM. The IC50 against Erk2 was determined as 392 nM.

With `CCNC(=O)Nc1ccc2ncc(-c3ccc(O)c(OC)c3)nc2n1` [Compound 124, 1-Ethyl-3-[3-(4-hydroxy-3-methoxy-phenyl)-pyrido[2,3-b]pyrazin-6-yl]-urea], the EC50 with Hct116 (Homo sapiens, HCT-116) stood at 1500 nM; in the data set with MDA-MB468 (Homo sapiens, MDA-MB-468), 10000 nM; in the data set with BxPC3, 10000 nM. Also, the IC50 at PI3Kalpha was 490 nM; against Erk2, 62 nM.

As to `O=C(NCCCCO)Nc1ccc2ncc(-c3ccccc3)nc2n1` [Compound 146, 1-(4-Hydroxy-butyl)-3-(3-phenyl-pyrido[2,3-b]pyrazin-6-yl)-urea], the EC50 in the data set with Hct116 (Homo sapiens, HCT-116) was 9300 nM; in the data set with MDA-MB468 (Homo sapiens, MDA-MB-468), ~20000 nM; with BxPC3, > 50000 nM. Moreover, the IC50 against PI3Kalpha stood at 1100 nM; at Erk2, 155 nM.

Turning to `CCNC(=O)Nc1ccc2ncc(Nc3ccc(C)cc3)nc2n1` [Compound 150, 1-Ethyl-3-(3-p-tolylamino-pyrido[2,3-b]pyrazin-6-yl)-urea], the EC50 came out at 2300 nM in the data set on Hct116 (Homo sapiens, HCT-116); 4300 nM in the data set with MDA-MB468 (Homo sapiens, MDA-MB-468); 900 nM with BxPC3. Moreover, the IC50 against PI3Kalpha is 129 nM; against Erk2, 18700 nM.

Consider `CCNC(=O)Nc1ccc2ncc(-c3cnn(C)c3)nc2n1` [Compound 173, 1-Ethyl-3-[3-(1-methyl-1H-pyrazol-4-yl)-pyrido[2,3-b]pyrazin-6-yl]-urea], for which the EC50 was 9000 nM in the data set with Hct116 (Homo sapiens, HCT-116) and > 25000 nM in the data set on MDA-MB468 (Homo sapiens, MDA-MB-468). In addition, the results for the IC50 against PI3Kalpha and at Erk2 were 2400 nM and 107 nM, respectively.

Turning to `CCNC(=O)Nc1ccc2ncc(-c3ccc(O)c(OC)c3)nc2n1.Cc1ccc(S(=O)(=O)O)cc1` [Compound 183, 1-Ethyl-3-[3-(4-hydroxy-3-methoxy-phenyl)-pyrido[2,3-b]pyrazin-6-yl]-urea p-Toluolsulfonate], the EC50 turned out to be 2100 nM with Hct116 and 4300 nM in the data set on MDA-MB468. Also, the IC50 on PI3Kalpha worked out at 2800 nM; at Erk2 it was 203 nM.
